Tests used:
Format in all cases: cell-based
E. coli DH5α = test: Antibacterial activity: MIC and growth curve against E. coli DH5α in 96-well plate; settings: minimal inhibitory concentration against E. coli DH5α; 96-well plate, 5×10^5 CFU/mL, 37° C., judged after 8 h
How it was run: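 MIC taken as lowest protein level with no bacterial growth, tracked by A600 every 30 min during 37 °C, 175 rpm culture. Two-fold protein series 50-12.5 μg/mL final, triplicate wells, against 5×10^5 CFU/mL of LB-washed mid-log cells.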

Moraxella catarrhalis = test: MIC against Gram-negative bacteria: Moraxella catarrhalis
How it was run: (§1)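 Purified recombinant human EGF domain proteins are tested by broth dilution in LB against a 5×10^5 CFU/mL inoculum, with two-fold serial dilutions run in triplicate. Plates are incubated at 37° C with shaking, and the MIC is read as the lowest protein concentration without growth.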

Aeromonas hydrophila = test: MIC against Gram-negative bacteria: Aeromonas hydrophila
How it was run: as §1

Klebsiella pneumonia = test: MIC against Gram-negative bacteria: Klebsiella pneumonia
How it was run: as §1

Proteus vulgaris = test: MIC against Gram-negative bacteria: Proteus vulgaris
How it was run: as §1

Enterobacter cloacae = test: MIC against Gram-negative bacteria: Enterobacter cloacae
How it was run: as §1

Serratia marcescens = test: MIC against Gram-negative bacteria: Serratia marcescens
How it was run: as §1

Pseudomonas aeruginosa = test: MIC against Gram-negative bacteria: Pseudomonas aeruginosa
How it was run: as §1

Citrobacter diversus = test: MIC against Gram-negative bacteria: Citrobacter diversus
How it was run: as §1

Proteus mirabilis = test: MIC against Gram-negative bacteria: Proteus mirabilis
How it was run: as §1

E. coli BL21 = test: MIC against Gram-negative bacteria: E. coli BL21; settings: for MIC (μg/mL) E. coli BL21 / MIC: E. coli BL21
How it was run: as §1

[1] = 96-well plate, 5×10^5 CFU/mL, 37° C., 10 h
[2] = M. catarrhalis, 10 h cultivation at 37° C., 5×10^5 CFU/mL
[3] = A. hydrophila, 10 h cultivation at 37° C., 5×10^5 CFU/mL
[4] = K. pneumonia, 10 h cultivation at 37° C., 5×10^5 CFU/mL
[5] = P. vulgaris, 10 h cultivation at 37° C., 5×10^5 CFU/mL
[6] = E. cloacae, 10 h cultivation at 37° C., 5×10^5 CFU/mL
[7] = S. marcescens, 10 h cultivation at 37° C., 5×10^5 CFU/mL
[8] = P. aeruginosa, 10 h cultivation at 37° C., 5×10^5 CFU/mL
[9] = C. diversus, 10 h cultivation at 37° C., 5×10^5 CFU/mL
[10] = P. mirabilis, 10 h cultivation at 37° C., 5×10^5 CFU/mL
[11] = 10 h cultivation at 37° C., 5×10^5 CFU/mL
[12] = 10 h cultivation at 37° C., 5×10^5 CFU/mL, two-fold serial dilution

PRT102 (DRCLPNYCEHGGECSQSWSTFHCNCTNTGYRGATC; listed as Homo sapiens)
25 µg/mL: MIC (μg/mL) S. marcescens (Serratia marcescens; Serratia marcescens, 96-well plate, 5×10^5 CFU/mL, 37° C., 10 h) | MIC (μg/mL) C. diversus (Citrobacter diversus; Citrobacter diversus, 96-well plate, 5×10^5 CFU/mL, 37° C., 10 h) | MIC (μg/mL) P. mirabilis (Proteus mirabilis; Proteus mirabilis, 96-well plate, 5×10^5 CFU/mL, 37° C., 10 h)
12.5 µg/mL: MIC (E. coli DH5α) | MIC (μg/mL) M. catarrhalis (Moraxella catarrhalis; Moraxella catarrhalis, 96-well plate, 5×10^5 CFU/mL, 37° C., 10 h) | MIC (μg/mL) A. hydrophila (Aeromonas hydrophila; Aeromonas hydrophila, 96-well plate, 5×10^5 CFU/mL, 37° C., 10 h) | MIC (μg/mL) K. pneumonia (Klebsiella pneumonia; Klebsiella pneumonia, 96-well plate, 5×10^5 CFU/mL, 37° C., 10 h) | MIC (μg/mL) P. vulgaris (Proteus vulgaris; Proteus vulgaris, 96-well plate, 5×10^5 CFU/mL, 37° C., 10 h) | MIC (μg/mL) E. cloacae (Enterobacter cloacae; Enterobacter cloacae, 96-well plate, 5×10^5 CFU/mL, 37° C., 10 h) | MIC (μg/mL) P. aeruginosa (Pseudomonas aeruginosa; Pseudomonas aeruginosa, 96-well plate, 5×10^5 CFU/mL, 37° C., 10 h) | MIC (μg/mL) E. coli BL21 (E. coli BL21; [1])

PRT794 (SSRCGCKNDAVCSPVDGSCTCKAGWHGVDCS; listed as Homo sapiens)
25 µg/mL: MIC (μg/mL) E. cloacae (Enterobacter cloacae; [6]) | MIC (μg/mL) C. diversus (Citrobacter diversus; [9]) | MIC (μg/mL) P. mirabilis (Proteus mirabilis; [10])
50 µg/mL: MIC (E. coli DH5α) | MIC (μg/mL) A. hydrophila (Aeromonas hydrophila; [3]) | MIC (μg/mL) P. vulgaris (Proteus vulgaris; [5]) | MIC (μg/mL) P. aeruginosa (Pseudomonas aeruginosa; [8])
12.5 µg/mL: MIC (μg/mL) M. catarrhalis (Moraxella catarrhalis; [2]) | MIC (μg/mL) K. pneumonia (Klebsiella pneumonia; [4]) | MIC (μg/mL) S. marcescens (Serratia marcescens; [7]) | MIC (μg/mL) E. coli BL21 (E. coli BL21; [11])

PRT1109 (EPRGCATQPCHHGALCVPQGPDPTGFRCYCVPGFQGPRCE; listed as Homo sapiens)
25 µg/mL: MIC M. catarrhalis (Moraxella catarrhalis; [12]) | MIC K. pneumonia (Klebsiella pneumonia; [12]) | MIC P. vulgaris (Proteus vulgaris; [12]) | MIC E. coli BL21 (E. coli BL21; [12])
50 µg/mL: MIC A. hydrophila (Aeromonas hydrophila; [12]) | MIC P. mirabilis (Proteus mirabilis; [12])
12.5 µg/mL: MIC (E. coli DH5α) | MIC E. cloacae (Enterobacter cloacae; [12]) | MIC S. marcescens (Serratia marcescens; [12]) | MIC P. aeruginosa (Pseudomonas aeruginosa; [12]) | MIC C. diversus (Citrobacter diversus; [12])

PRT428 (DVNECWASPGRLCQHTCENTLGSYRCSCASGFLLAADGKRCE; listed as Homo sapiens)
25 µg/mL: MIC (Aeromonas hydrophila; [3]) | MIC (Klebsiella pneumonia; [4]) | MIC (E. coli BL21; [11])
50 µg/mL: MIC (E. coli DH5α) | MIC (Moraxella catarrhalis; [2]) | MIC (Proteus vulgaris; [5]) | MIC (Enterobacter cloacae; [6])
12.5 µg/mL: MIC (Serratia marcescens; [7]) | MIC (Pseudomonas aeruginosa; [8]) | MIC (Citrobacter diversus; [9]) | MIC (Proteus mirabilis; [10])

PRT995 (ETNECASAPCLNHADCHDLLNGFQCICLPGFSGTRCE; listed as Homo sapiens)
25 µg/mL: MIC (Citrobacter diversus; C. diversus, 10 h cultivation at 37° C.) | MIC (Proteus mirabilis; P. mirabilis, 10 h cultivation at 37° C.)
12.5 µg/mL: MIC (E. coli DH5α) | MIC (Moraxella catarrhalis; M. catarrhalis, 10 h cultivation at 37° C.) | MIC (Enterobacter cloacae; E. cloacae, 10 h cultivation at 37° C.) | MIC (Serratia marcescens; S. marcescens, 10 h cultivation at 37° C.) | MIC (Pseudomonas aeruginosa; P. aeruginosa, 10 h cultivation at 37° C.)
50 µg/mL: MIC (Aeromonas hydrophila; A. hydrophila, 10 h cultivation at 37° C.) | MIC (Klebsiella pneumonia; K. pneumonia, 10 h cultivation at 37° C.) | MIC (Proteus vulgaris; P. vulgaris, 10 h cultivation at 37° C.) | MIC (E. coli BL21; 10 h cultivation at 37° C.)

PRT1129 (PVTNCASSPCQNGGTCLQHTQVSYECLCKPEFTGLTCV; listed as Homo sapiens)
25 µg/mL: MIC A. hydrophila (Aeromonas hydrophila; [12])
50 µg/mL: MIC (E. coli DH5α) | MIC P. aeruginosa (Pseudomonas aeruginosa; [12])
12.5 µg/mL: MIC M. catarrhalis (Moraxella catarrhalis; [12]) | MIC K. pneumonia (Klebsiella pneumonia; [12]) | MIC P. vulgaris (Proteus vulgaris; [12]) | MIC E. cloacae (Enterobacter cloacae; [12]) | MIC S. marcescens (Serratia marcescens; [12]) | MIC C. diversus (Citrobacter diversus; [12]) | MIC P. mirabilis (Proteus mirabilis; [12]) | MIC E. coli BL21 (E. coli BL21; [12])

PRT604 (CPCNRFAELCDPETGSCFNCGGFTTGRNCERCIDGYYGNPSSGQPCRP; listed as Homo sapiens)
50 µg/mL: MIC (E. coli DH5α) | MIC K. pneumonia (Klebsiella pneumonia; [1])
12.5 µg/mL: MIC M. catarrhalis (Moraxella catarrhalis; [1]) | MIC A. hydrophila (Aeromonas hydrophila; [1]) | MIC P. vulgaris (Proteus vulgaris; [1]) | MIC E. coli BL21 (E. coli BL21; [1])
25 µg/mL: MIC E. cloacae (Enterobacter cloacae; [1]) | MIC S. marcescens (Serratia marcescens; [1]) | MIC P. aeruginosa (Pseudomonas aeruginosa; [1]) | MIC C. diversus (Citrobacter diversus; [1]) | MIC P. mirabilis (Proteus mirabilis; [1])

Source: patent US9833497B2, “Human originated EGF domain proteins and use of the same” (CHENGDU SOURCEBIO LIMITED-LIABILITY COMPANY, priority 2013, dated 2017)
